From ChEMBL document CHEMBL4418494, “Small molecule inhibitors of AGBL2” (2015) come the findings set out here.

The structures appear in SMILES notation. Calls of active or inactive are those of the source. The rule behind the calls is not given here.

The target of this assay is T1, Cytosolic carboxypeptidase 2 (Homo sapiens) (UniProt Q5U5Z8).
T1 sequence (whole entry): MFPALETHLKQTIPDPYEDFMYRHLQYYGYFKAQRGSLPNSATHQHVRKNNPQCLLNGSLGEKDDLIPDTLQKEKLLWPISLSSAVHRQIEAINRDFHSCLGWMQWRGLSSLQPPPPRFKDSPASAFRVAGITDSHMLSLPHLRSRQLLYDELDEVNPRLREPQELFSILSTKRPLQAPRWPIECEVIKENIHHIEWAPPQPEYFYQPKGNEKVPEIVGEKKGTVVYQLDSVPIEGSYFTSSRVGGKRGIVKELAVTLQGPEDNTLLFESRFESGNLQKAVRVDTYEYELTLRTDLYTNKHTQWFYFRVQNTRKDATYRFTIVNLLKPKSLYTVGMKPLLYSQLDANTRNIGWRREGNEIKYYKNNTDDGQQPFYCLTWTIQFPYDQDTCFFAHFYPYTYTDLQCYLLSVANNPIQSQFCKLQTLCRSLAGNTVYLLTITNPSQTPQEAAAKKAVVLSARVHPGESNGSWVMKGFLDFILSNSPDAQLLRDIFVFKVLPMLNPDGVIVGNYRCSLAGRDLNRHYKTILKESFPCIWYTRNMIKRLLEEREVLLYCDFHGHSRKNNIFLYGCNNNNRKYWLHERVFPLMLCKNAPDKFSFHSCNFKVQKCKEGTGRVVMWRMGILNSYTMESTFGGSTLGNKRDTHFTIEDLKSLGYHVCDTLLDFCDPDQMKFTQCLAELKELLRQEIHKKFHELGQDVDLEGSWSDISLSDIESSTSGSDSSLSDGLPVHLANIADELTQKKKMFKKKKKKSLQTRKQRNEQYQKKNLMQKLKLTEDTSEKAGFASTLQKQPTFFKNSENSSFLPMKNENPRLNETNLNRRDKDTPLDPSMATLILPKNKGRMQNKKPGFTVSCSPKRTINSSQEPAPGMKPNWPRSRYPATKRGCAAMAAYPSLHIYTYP
The assay can be described thus: Inhibition of AGBL2 (unknown origin) expressed in HEK293 stably expressing TIG1 assessed as reduction in de-tyrosinated to tyrosinated ratio of alpha-tubulin at 1 uM incubated for 2 hrs by Western blotting analysis relative to control. The format is cell-based.
Take `Cc1cc(C(F)(F)F)cnc1CC(=O)O`: the “inhibition (active/inactive call)” value is “Active”.
The value for `Cc1cc(F)cnc1CC(=O)O` was “Active”; that for `O=C(O)Cc1cccc(C(=O)Nc2ccc3c(c2)OCO3)c1` was “Active”.
With `CC(C)c1ccc(Sc2ccc(F)cc2CC(=O)O)cc1`, the “inhibition (active/inactive call)” value is “Active”.
